Series [1] relates to Dar-1 riboswitch. Briefly: SAH dependent switch with FP readout, intact riboswitch with fluor-labeled oligo. As to conditions: for EC50: FP dose response. Format: binding, D. aromatica. The text has this: (§1) The native riboswitch signaling mechanism was first leveraged by transducing the conformational switch that occurs upon SAH binding into a fluorescent signal. The goal was to identify an oligonucleotide that would bind to the riboswitch specifically when SAH was present due to the localized conformational disruption it causes (FIG. 3A). Using two well characterized riboswitches, Ref-1 (SEQ ID NO:1) and Dar-1 (SEQ ID NO:4) (Wang et al., 2008, Mol. Cell. 29(6):691-702), an unbiased, empirical approach was taken by testing a panel of 8-10 bp oligos that covered the entire sequence of each riboswitch. The oligos were labeled with fluors at the 5′ end so that binding could be detected by the increase in fluorescence polarization.
A robust, dose dependent FP shift under optimized conditions was observed, which was quite reproducible. However, the affinity of the riboswitch for SAH was much lower than the low nanomolar level expected, and it decreased further over time (see FIG. 3B and inset table for representative data with Dar-1). […] Moreover, the selectivity for SAH vs. SAM was much poorer than expected, less than 50-fold for both Dar-1 and Ref-1 rather than the 1000-fold-plus selectivity reported for the native riboswitch (Wang et al., 2008, Mol. Cell. 29(6):691-702). Despite significant effort to understand and eliminate the unstable nature of the SAH-riboswitch interaction, including confirming that both the riboswitch and the SAH were not degrading over time, a stable, high affinity SAH dependent signal was unable to be obtained. Thus, a split aptamer approach was next explored.

Series [2] deals with Ref-1 riboswitch. The description is as above. As to conditions: intact Ref-1. Format: binding, R. ferrireducens.
Text: as §1
A robust, dose dependent FP shift under optimized conditions was observed, which was quite reproducible. However, the affinity of the riboswitch for SAH was much lower than the low nanomolar level expected, and it decreased further over time (see FIG. 3B and inset table for representative data with Dar-1). […] Moreover, the selectivity for SAH vs. SAM was much poorer than expected, less than 50-fold for both Dar-1 and Ref-1 rather than the 1000-fold-plus selectivity reported for the native riboswitch (Wang et al., 2008, Mol. Cell. 29(6):691-702). […]

In series [3] the test system is split Dar-1 riboswitch (P152/P218). As to the kind of experiment: split aptamer SAH FP assay. Format: binding, D. aromatica. The protocol: Based on the predicted folding of the Dar-1 sequence and imputed SAH binding interactions (Wang et al., 2008, Mol Cell. 29(6):691-702), two versions of a split Dar-1 riboswitch were tested, comprised of either a 59 or 52 base 5′ element (P159 of SEQ ID NO:6 or P152 of SEQ ID NO:7) and the remaining 18 base 3′ element (P218 of SEQ ID NO:8). […] For simplicity, EC50 values were used as an approximation of ligand dissociation constants, or Kd. […] This is the first example of a split aptamer sensor with FP readout.
Selectivity vs. SAM is a critical parameter, as measurement of HMT enzyme activity requires detection of SAH in an excess of SAM. […] Thus, the selectivity for SAH is at least 200-fold and likely higher; however, measurements are limited by contamination of SAM with SAH. The combination of sensitivity and selectivity is reflected in a standard curve mimicking an HMT enzyme reaction, in which 200 nM SAM was decreased as SAH was added proportionately (FIG. 4D). To quantitatively assess the robustness of the split aptamer FP assay, the standard curve was done with sixteen replicates to allow determination of Z′ values, a commonly used HTS assay statistic that measures that incorporates both dynamic range and data variability (Zhang et al., 1999, J Biomol. Screen. 4(2):67-73). […] The Z′ measured in this Example was 0.56, indicative of a high quality assay.

Series [4] relates to split SAH aptamer P152/P218, Tb construct. As to the kind of experiment: split aptamer SAH TR-FRET assay, Tb construct. In kind it is binding, D. aromatica. The protocol: The split aptamer SAH detection assay was next formatted for TR-FRET readout. Luminescent lanthanides were attached to P152 of the SAH aptamer via streptavidin-biotin, and organic acceptor fluors were attached to P218 during synthesis. Both Tb and Eu lanthanide chelates (Life Technologies) were tested, as were four different organic fluors with excitation spectra overlapping the lanthanide emission (Alexa 633, Alexa 647, Cy5, and Dylight 650.)
Importantly, the signal was stable for at least 15 h.

For series [5], the system named is split SAH aptamer P152/P218, Eu construct. As to the kind of experiment: split aptamer SAH TR-FRET assay, Eu construct. Format: binding, D. aromatica.
Series [6] addresses SAH riboswitch from D. aromatica. As to conditions: cited from earlier work.
Series [7] concerns the target SAH riboswitch from R. soanacearum. The conditions noted are these: isothermal titration calorimetry; cited from earlier work.
The target in series [8] is PRMT1 (Homo sapiens, UniProt Q99873). As to conditions: read-out: Km (SAM); plot of velocity vs. SAM, FIG. 5F.
Chain of PRMT1 (Q99873 whole entry, species assumed): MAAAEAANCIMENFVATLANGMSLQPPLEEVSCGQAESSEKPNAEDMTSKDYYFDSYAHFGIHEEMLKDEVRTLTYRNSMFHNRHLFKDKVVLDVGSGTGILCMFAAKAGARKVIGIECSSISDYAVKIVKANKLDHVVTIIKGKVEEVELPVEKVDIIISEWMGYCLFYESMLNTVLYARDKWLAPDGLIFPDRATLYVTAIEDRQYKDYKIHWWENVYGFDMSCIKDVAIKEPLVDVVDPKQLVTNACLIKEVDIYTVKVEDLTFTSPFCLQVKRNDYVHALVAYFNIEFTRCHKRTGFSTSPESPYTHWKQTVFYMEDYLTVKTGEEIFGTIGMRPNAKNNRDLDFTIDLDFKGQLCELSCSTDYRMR
Series [9] concerns RNA aptamer for theophylline. As to conditions: on the basis of a single methyl group; cited from earlier work.
The target in series [10] is dimethyl Arg in Histone H3 (H3R8Me2) (Homo sapiens, UniProt P68431). As to conditions: cited from earlier work.
Series [11] addresses histone H4 acetylated at lysine 16 (H4K16Ac) (Homo sapiens, UniProt P62805). As to conditions: cited from earlier work.

Like-named read-outs stand apart in the source and are kept apart here.

Broadly, the EC50 is the midpoint of the concentration-response curve. As for `Nc1ncnc2c1ncn2[C@@H]1O[C@H](CSCC[C@H](N)C(=O)O)[C@@H](O)[C@H]1O` [SAH, S-adenosylhomocysteine], the EC50 in series [1] (after 3 h, read-out: EC50 for SAH after 3 h) was 1900 nM; in series [1] (initial reading, read-out: initial EC50 for SAH) it was 472 nM; in series [3] (from FP dose response curves FIG. 4B, used as approximation of Kd), 20 to 25 nM; in [4], 23 nM; in series [5] it was 16 nM. For the same molecule, the “selectivity for SAH vs. SAM” value is “less than 50 fold” in [1] (intact Dar-1), “less than 50 fold” in [2] and “at least 200 fold” in series [3] (limited by contamination of SAM with SAH). Also, the Kd in [6] (equilibrium binding analysis) is 20 nM; in series [7], 30 nM.
The term Km denotes the substrate concentration at which the rate is half of its maximum. Consider `C[S+](CC[C@H](N)C(=O)[O-])C[C@H]1O[C@@H](n2cnc3c(N)ncnc32)[C@H](O)[C@@H]1O` (stereo partly drawn) [SAM, S-adenosylmethionine], for which the Michaelis-Menten constant (Km) in series [8] is 0.014 µM. In series [6] (native riboswitch), the “selectivity for SAH versus SAM (affinity for SAM fold lower)” value is listed as “at least 1000 fold”.
On to `Cn1c(=O)c2[nH]cnc2n(C)c1=O` [theophylline], for which the selectivity against caffeine entry in [9] is reported as “more than 10^4 fold”.
Regarding “H3R8Me2 aptamer: 50 base RNA aptamer developed for dimethyl Arg in Histone H3 (GAUGGGUCAGCAUGUAGCCAGGCAGGGCCGUGUGAGCUUGUGCUGAUGUG; RNA, backbone and methylation of C not given here)”, the Kd in series [10] (read-out: affinity for the target modified peptide) is 12 nM. Further, in series [10] (vs H3K9Me2), the “selectivity for a similar histone PTM (H3K9Me2)” value is 8.1 fold. Also, the “selectivity for the unmodified peptide” value in series [10] (vs unmodified peptide) is on record as 3.5 fold.
As for “H4K16Ac aptamer: 48 base DNA aptamer for histone H4 acetylated at lysine 16 (AGACGTAAGTTAATTGGACTTGGTCGTGTGCGGCACAGCGATTGAAAT; DNA, backbone and methylation of C not given here)”, the “selectivity versus Histone H4 acetylation at K8 or unmodified Histone H4 sequence” value in series [11] is listed as “more than 2,000 fold”. Besides, the Kd in [11] (read-out: Kd for target PTM) was 21 nM.

The record behind these values is patent publication US20180251765A1, “HIGH-THROUGHPUT SPLIT APTAMER SCREENING ASSAY” (BELLBROOK LABS, priority 2015, published 2018).
